{"source": "patent US5206382A", "about": "“Indole derivatives, pharmaceutical compositions and methods of treating neurological and psychiatric disorders” (Fidia Georgetown Institute for the Neurosciences, priority 1991, dated 1993)", "key": {"rats": {"tested_on": "rats", "settings": "cited from earlier work"}, "MBR [1]": {"tested_on": "MBR", "settings": "in words; cited from earlier work"}, "GABAA receptor": {"tested_on": "GABAA receptor", "settings": "in words; cited from earlier work"}, "MBR [2]": {"tested_on": "MBR", "settings": "in words; cited from earlier work", "remark": "listed apart in the source"}, "GABAA receptors": {"tested_on": "GABAA receptors", "settings": "in words; cited from earlier work"}, "[3]": {"biological_target": "T1, MBR (mitochondrial benzodiazepine recognition site) (Rattus norvegicus, UniProt P16257)", "T1 construct": "Brain and adrenal glands were removed and homogenized with Polytron; from tissue; host or cells: mitochondrial fraction of Sprague Dawley rat brain and adrenal glands", "assay": "Displacement of ^3 H-PK11195 from mitochondrial BZD recognition site (MBR)", "assay_type": "binding, Sprague Dawley rat", "settings": "for IC50: displacement of 1 nM ^3 H-PK11195, rat mitochondria, range in parentheses; for ^3 H-PK11195 / ^3 H-RO5-4864: ratio of the two IC50 values", "method": "(§1) Mitochondrial Preparation: Sprague Dawley rats (200-250 gr.) were killed by decapitation. Brain and adrenal glands were removed and homogenized with Polytron for 15 minutes in ice cold buffer (10 mM Na/KPO4, 0.32M sucrose, pH 7.4). The homogenate was centrifuged for 15 minutes at 6,500 xg at 4° C. The resulting supernatant was centrifuged for 15 minutes at […] at 4° C. The pellet was suspended in buffer (20 times) by gentle homogenization and centrifuged at 10,000 xg at 4° C. for 15 minutes. The washed mitochondrial pellet was stored at -70° C.\n(§2) For the binding assay the mitochondrial fraction was diluted with 50 mM Na/KPO4 buffer (pH 7.4) to give a final protein concentration of […] in 100 μl buffer. This suspension was incubated with 1 nM of ^3 H PK-11195 or ^3 H RO 5-4864 (50 μl) with or without 10/μM unlabeled PK-11195 or RO 5-4864 to assess the extent of total and non-specific binding. Different amounts of indole derivatives were added to the incubation medium in a volume of 50 μl. After incubation for 60 minutes at 4° C., samples were filtered and the radioactivity was measured in a scintillation counter."}, "[4]": {"biological_target": "T1, MBR (mitochondrial benzodiazepine recognition site)", "assay": "Displacement of ^3 H-RO5-4864 from mitochondrial BZD recognition site (MBR)", "assay_type": "binding, Sprague Dawley rat", "settings": "displacement of 1 nM ^3 H-RO5-4864, rat mitochondria; range in parentheses", "method": "as §1, §2"}, "[5]": {"biological_target": "T2, ^3 H-ZOLPIDEM binding (crude synaptic membrane) (Rattus norvegicus, UniProt P18508+P62813)", "T2 construct": "from tissue; host or cells: crude synaptic membranes of Sprague Dawley rat cerebellum", "T2 sequence (P62813 28-455)": "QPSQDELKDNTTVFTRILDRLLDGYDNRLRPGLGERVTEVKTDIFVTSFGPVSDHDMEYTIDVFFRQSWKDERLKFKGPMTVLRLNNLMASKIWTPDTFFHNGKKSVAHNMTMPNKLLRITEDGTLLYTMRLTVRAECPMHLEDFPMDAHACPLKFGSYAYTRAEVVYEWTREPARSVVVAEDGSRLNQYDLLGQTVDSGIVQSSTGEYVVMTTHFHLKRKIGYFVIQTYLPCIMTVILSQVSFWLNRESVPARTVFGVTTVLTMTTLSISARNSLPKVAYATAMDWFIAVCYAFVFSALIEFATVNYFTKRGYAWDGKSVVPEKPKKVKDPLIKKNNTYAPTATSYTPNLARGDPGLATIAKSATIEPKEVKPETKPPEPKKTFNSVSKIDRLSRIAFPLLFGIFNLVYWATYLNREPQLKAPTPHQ", "T2 sequence (P18508 39-466)": "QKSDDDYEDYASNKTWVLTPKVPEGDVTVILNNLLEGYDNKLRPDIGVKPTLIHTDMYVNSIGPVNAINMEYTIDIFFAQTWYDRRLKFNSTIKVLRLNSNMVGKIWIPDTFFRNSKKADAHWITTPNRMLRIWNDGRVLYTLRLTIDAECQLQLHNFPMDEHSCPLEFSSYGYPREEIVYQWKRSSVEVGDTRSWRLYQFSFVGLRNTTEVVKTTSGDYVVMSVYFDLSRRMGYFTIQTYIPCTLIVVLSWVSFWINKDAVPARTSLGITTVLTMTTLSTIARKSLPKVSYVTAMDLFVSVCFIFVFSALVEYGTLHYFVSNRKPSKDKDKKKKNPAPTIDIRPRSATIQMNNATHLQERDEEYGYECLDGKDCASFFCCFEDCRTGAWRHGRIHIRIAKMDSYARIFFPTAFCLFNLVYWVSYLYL", "assay": "^3 H-ZOLPIDEM binding, crude synaptic membranes", "design": "species or system Sprague Dawley rat", "settings": "2 nM ^3 H-ZOLPIDEM, rat cerebellum membranes", "method": "(§3) Crude Synaptic Membrane Preparation: Sprague Dawley rats (200-250 gr.) were killed by decapitation. The cerebella were removed and incubated for 20 minutes in ice cold double distilled water after homogenization with Polytron. The homogenate was centrifuged at 18,000 xg at 4° C. for 10 minutes. The pellet was suspended in ice-cold buffer 50 mM Na/KPO4(pH 7.4) and centrifuged at 18,000 xg at 4° C. for 10 minutes. After two other centrifugations, the membranes were suspended in 5 ml of buffer and the proteins were measured.\n(§4) The membranes were diluted with 50 mM Na/KPO4 buffer (pH 7.4) to a concentration of 150 μg of protein/ml, and 150 μl aliquots of the suspension were incubated with 50 μl of the different ligands to be tested: ^3 H-ZOLPIDEM(2 nM), ^3 H-FLUMAZENIL (2 nM), ^3 H-GABA(10 nM), ^3 H-MK 801(5 nM), ^3 H-KETANSERIN(1 nM), ^3 H-GLYCINE(20 nM), ^3 H-SPIPERONE(1 nM), ^3 H-AMPA(10 nM), ^3 H-3-PPP(1 nM), and ^3 H-NALOXONE(1 nM). Non-specific binding was assessed by displacing with 10 to 1000/μM of cold ligand. The different indole derivatives were added in a volume of 50 μl in a concentration varying from 10^-9 to 10^-3 M. The results are reported in Table I hereinbelow."}, "[6]": {"biological_target": "T3, BZD binding site located on the GABAA receptor (Rattus norvegicus, UniProt P18508+P62813)", "T3 construct": "The cerebella were removed and incubated for 20 minutes in ice cold double distilled water; from tissue; host or cells: crude synaptic membranes of Sprague Dawley rat cerebellum", "T3 sequence (P62813 28-455)": "as the sequence (P62813 28-455) above", "T3 sequence (P18508 39-466)": "as the sequence (P18508 39-466) above", "assay": "^3 H-FLUMAZENIL binding, crude synaptic membranes", "design": "species or system Sprague Dawley rat", "settings": "2 nM ^3 H-FLUMAZENIL, rat cerebellum membranes", "method": "as §3\nas §4, with “ligand.” for “ligand. The different indole derivatives were added in a volume of 50 μl in a concentration varying from 10^-9 to 10^-3 M. The results are reported in Table I hereinbelow.”"}, "[7]": {"biological_target": "^3 H-GABA binding (crude synaptic membrane)", "assay": "^3 H-GABA binding, crude synaptic membranes", "design": "species or system Sprague Dawley rat", "settings": "10 nM ^3 H-GABA, rat cerebellum membranes", "method": "as §3, §4"}, "[8]": {"tested_on": "mitochondrial pregnenolone formation, C6-2B glioma cells", "assay": "Pregnenolone formation in glial mitochondria (C6-2B glioma cells)", "assay_type": "biochemical", "settings": "for Effective concentration, maximal / EC50: C6 glial cell mitochondria, 15 minutes at 37° C.; for EC50: read-out: Effective concentration, 50%; for Stimulation %: pregnenolone formation, increase over the control", "method": "The mixture was preincubated for 5 minutes at 37° C. The incubation mixture was extracted with 5 ml chloroform/methanol (2:1, vol/vol), and the organic phase was evaporated to dryness. Pregnenolone was measured by a specific radioimmunoassay using an antibody obtained from Radioassay Systems Laboratories, Carson, Calif."}, "Sprague Dawley rats": {"tested_on": "Sprague Dawley rats", "assay": "Elevated X maze test", "assay_type": "in vivo, Sprague Dawley rat", "settings": "for Entries in open arms, test after 10 min injection / Entries in open arms, test after 20 min injection / Entries in open arms, test after 30 min injection: rats; for behavioral output of rats in the elevated X maze test / anxiolytic potency ranking: in words", "method": "The elevated X maze is a behavioral test to detect anxiolytic drugs in rodents. […] The plus-maze consists of two open arms (43×8 cm) and two similarly sized enclosed arms with 9 cm high walls, arranged so that the arms of the same type are opposite each other. There is a central square of 8 cm. The apparatus is elevated to a height of 10 cm and each arm is divided into 3 squares.\nSprague Dawley rats weighing 200-250 gr. were housed in a room with a 12 hour light: 12 hour dark cycle and were allowed free access to food and water. After an i.v. injection of different indole derivatives, the rats were kept separated for 10, 20 or 30 minutes before testing. The testing period commenced when each animal was placed onto the central square of the maze. The number of entries in each arm was then recorded for 5 minutes. The maze was cleaned with water after each trial. The number of entries in the open arms provided a measure of anxiolytic activity of the drugs."}, "[9]": {"assay": "Sedation and ataxia in rats", "settings": "rat, in vivo, ratio of doses, read-out: anxiolytic doses lower than the doses that produce sedation and ataxia"}}, "note": "Like-named read-outs stand apart in the source and are kept apart here."}
{"molecule": "CCCN(CCC)C(=O)Cc1c(-c2ccc(Cl)cc2)nc2ccc(Cl)cn12", "note": "[Alpidem]", "values": [{"measurement": "conflict response", "setting": "rats; dose-related, reduced by both PK-11195 and Flumazenil", "result": "anticonflict (anxiolytic) action"}, {"measurement": "affinity for the MBR", "setting": "MBR [1]", "result": "high affinity"}, {"measurement": "binding to the GABAA receptor / BZD recognition sites on GABAA receptors", "setting": "GABAA receptor", "result": "high affinity"}, {"measurement": "cholesterol influx into mitochondria and formation of pregnenolone", "setting": "MBR [2]", "result": "facilitates cholesterol influx into mitochondria and the formation of pregnenolone"}]}
{"molecule": "C[C@]12CC[C@@H](O)C[C@@H]1CC[C@@H]1[C@@H]2CC[C@]2(C)[C@@H](C(=O)CO)CC[C@@H]12", "note": "[3α,21-dihydroxy-5α-pregnan-20-one(THDOC), 3α,21-dihydroxy-5α-pregnan-20-one]", "values": [{"measurement": "modulation of GABA action", "setting": "GABAA receptors", "result": "positively modulate"}]}
{"molecule": "CC(=O)[C@H]1CC[C@H]2[C@@H]3CC[C@H]4C[C@H](O)CC[C@]4(C)[C@H]3CC[C@]12C", "note": "[3-α-hydroxy-5α-pregnan-20-one(3-αOH-DHP), 3-α-hydroxy-5α-pregnan-20-one]", "values": [{"measurement": "modulation of GABA action", "setting": "GABAA receptors", "result": "positively modulate"}]}
{"molecule": "CC(=O)[C@H]1CC[C@H]2[C@@H]3CC=C4C[C@@H](OS(=O)(=O)O)CC[C@]4(C)[C@H]3CC[C@]12C", "note": "[pregnenolone sulphate]", "values": [{"measurement": "modulation of GABA action", "setting": "GABAA receptors", "result": "negatively modulate"}]}
{"molecule": "CN1C(=O)CN=C(c2ccc(Cl)cc2)c2cc(Cl)ccc21", "note": "[4-Cl-Diazepam]", "values": [{"measurement": "conflict response", "setting": "rats; rats, small doses, partially resistant to Flumazenil, sensitive to PK-11195", "result": "proconflict response"}, {"measurement": "affinity for the MBR", "setting": "MBR [1]", "result": "high affinity"}, {"measurement": "binding to the GABAA receptor / BZD recognition sites on GABAA receptors", "setting": "GABAA receptor", "result": "binds to the GABAA receptor"}, {"measurement": "cholesterol influx into mitochondria and formation of pregnenolone", "setting": "MBR [2]", "result": "facilitates cholesterol influx into mitochondria and the formation of pregnenolone"}]}
{"molecule": "CCCN(CCC)C(=O)Cc1c(-c2ccccc2)[nH]c2ccccc12", "note": "[Compound No. 2]", "values": [{"measurement": "IC50", "setting": "[3]", "result": 0.0325, "unit": "µM"}, {"measurement": "^3 H-PK11195 / ^3 H-RO5-4864", "setting": "[3]", "result": 1.4}, {"measurement": "IC50", "setting": "[4]", "result": 0.0225, "unit": "µM"}, {"measurement": "IC50", "setting": "[5]", "result": "> 1", "unit": "µM"}, {"measurement": "IC50", "setting": "[6]", "result": "> 1", "unit": "µM"}, {"measurement": "IC50", "setting": "[7]", "result": "> 1", "unit": "µM"}, {"measurement": "Effective concentration, maximal", "setting": "[8]", "result": "10^-9 M"}, {"measurement": "EC50", "setting": "[8]", "result": 0.00033, "unit": "µM"}, {"measurement": "Stimulation %", "setting": "[8]", "result": 200, "unit": "%"}, {"measurement": "Entries in open arms, test after 10 min injection", "setting": "Sprague Dawley rats; 20 mg/kg i.v.", "result": 0}, {"measurement": "Entries in open arms, test after 20 min injection", "setting": "Sprague Dawley rats; 20 mg/kg i.v.", "result": 0}, {"measurement": "Entries in open arms, test after 30 min injection", "setting": "Sprague Dawley rats; 20 mg/kg i.v.", "result": 0}, {"measurement": "Entries in open arms, test after 10 min injection", "setting": "Sprague Dawley rats; 200 mg/kg i.v.", "result": 4}, {"measurement": "Entries in open arms, test after 20 min injection", "setting": "Sprague Dawley rats; 200 mg/kg i.v.", "result": 0}, {"measurement": "Entries in open arms, test after 30 min injection", "setting": "Sprague Dawley rats; 200 mg/kg i.v.", "result": 0}, {"measurement": "behavioral output of rats in the elevated X maze test", "setting": "Sprague Dawley rats", "result": "increase the behavioral output"}]}
{"molecule": "CCCCCCN(CCCCCC)C(=O)Cc1c(-c2ccc(Cl)cc2)[nH]c2ccc(Cl)cc12", "note": "[compound 43]", "values": [{"measurement": "Entries in open arms, test after 10 min injection", "setting": "Sprague Dawley rats; 0.5 mg/kg i.v.", "result": 4}, {"measurement": "Entries in open arms, test after 20 min injection", "setting": "Sprague Dawley rats; 0.5 mg/kg i.v.", "result": 2}, {"measurement": "Entries in open arms, test after 30 min injection", "setting": "Sprague Dawley rats; 0.5 mg/kg i.v.", "result": 1}, {"measurement": "anxiolytic potency ranking", "setting": "Sprague Dawley rats", "result": "most potent anxiolytic drugs"}, {"measurement": "behavioral output of rats in the elevated X maze test", "setting": "Sprague Dawley rats", "result": "increase the behavioral output"}, {"measurement": "selectivity ratio", "setting": "[9]", "result": "100 to 500"}]}
{"molecule": "CCCCCCN(CCCCCC)C(=O)Cc1c(-c2ccc(F)cc2)[nH]c2ccccc12", "note": "[compound 27]", "values": [{"measurement": "IC50", "setting": "[3]", "result": 0.018, "unit": "µM"}, {"measurement": "^3 H-PK11195 / ^3 H-RO5-4864", "setting": "[3]", "result": 0.9}, {"measurement": "IC50", "setting": "[4]", "result": 0.02, "unit": "µM"}, {"measurement": "IC50", "setting": "[6]", "result": "> 1", "unit": "µM"}, {"measurement": "IC50", "setting": "[7]", "result": "> 1", "unit": "µM"}, {"measurement": "Effective concentration, maximal", "setting": "[8]", "result": "10^-7 M"}, {"measurement": "EC50", "setting": "[8]", "result": 0.0033, "unit": "µM"}, {"measurement": "Stimulation %", "setting": "[8]", "result": 300, "unit": "%"}, {"measurement": "Entries in open arms, test after 10 min injection", "setting": "Sprague Dawley rats; 0.5 mg/kg i.v.", "result": 5}, {"measurement": "Entries in open arms, test after 20 min injection", "setting": "Sprague Dawley rats; 0.5 mg/kg i.v.", "result": 2}, {"measurement": "Entries in open arms, test after 30 min injection", "setting": "Sprague Dawley rats; 0.5 mg/kg i.v.", "result": 1}, {"measurement": "anxiolytic potency ranking", "setting": "Sprague Dawley rats", "result": "most potent anxiolytic drugs"}, {"measurement": "behavioral output of rats in the elevated X maze test", "setting": "Sprague Dawley rats", "result": "increase the behavioral output"}, {"measurement": "selectivity ratio", "setting": "[9]", "result": "100 to 500"}]}
